Assay results reported in ChEMBL document CHEMBL4190229, “Growth Inhibition of Colon Cancer and Melanoma Cells by Versiol Derivatives from a Paraconiothyrium Species” (J Nat Prod, 2017).

Key:
COLO 205 = assay: Antiproliferative activity against human COLO205 cells after 48 hrs by XTT assay; conditions: COLO 205, 48 h
KM12 = assay: Antiproliferative activity against human KM12 cells after 48 hrs by XTT assay; conditions: KM12, 48 h
[1] = test system: Panel NCI-60 (60 carcinoma cell lines); assay: Antiproliferative activity against human NCI60 cells at 10 uM after 48 hrs by sulforhodamine B assay relative to control; type: functional
[2] = test system: Panel NCI-60 (60 carcinoma cell lines); assay: Antiproliferative activity against human NCI60 cells after 48 hrs by sulforhodamine B assay; type: functional, cell-based

SMILES | IC50 (COLO 205) [µM] | IC50 (KM12) [µM] | Activity [1] [%] | Activity [2]
CC(/C=C/C=C(\C)[C@H](O)[C@H](C)C(=O)O[C@H]1C[C@H](C)C=C2C=C[C@@]3(C)O[C@@H](O)CC(=O)[C@]3(C)[C@H]21)=C\C=C\C(=O)O | < 1.25 | < 1.25 | -3 | –
C/C(=C\C=C\[C@H](C)CC(=O)O)[C@H](O)[C@H](C)C(=O)O[C@H]1C[C@@H](C)[C@@H](O)c2ccc(C)c(C)c21 | 12.5 | 6.5 | 89 | –
CC(=O)CC/C=C(\C)[C@H](O)[C@H](C)C(=O)O[C@H]1C[C@H](C)C=C2C=C[C@@]3(C)O[C@@H](O)CC(=O)[C@]3(C)[C@H]21 | < 1.25 | < 1.25 | -34 | Dose-dependent effect
